Data: US9617214B2, “Compounds for cognitive enhancement and methods of use thereof” (The Translational Genomics Research Institute, priority 2013, dated 2017)
Entries after “also recorded” stand apart in the source; their conditions may differ. Like-named read-outs stand apart in the source and are kept apart here.

Columns and labels:
[1] = tested on: H4-tau cells; assay: p-tau protein to total tau protein ratio in H4-tau cells at IC10 dosage, 96-hour time course, ELISA; format: cell-based, human; settings: 96-hour time course, compared to vehicle (DMSO), two-sided t-test
Protocol: Thirteen different ROCK inhibitors were tested for their effect on the ratio of p-tau protein to total tau protein. […] Alamar Blue was used after cells were treated with the respective compounds at various dosages to determine the IC10 value. The compounds were applied to H4-tau cells over a 96-hour time course with 8 time points (at hours 12, 24, 36, 48, 60, 72, 84, and 96). At each time point, total cell protein was collected and p-tau protein and total tau protein was assessed using an enzyme-linked immunosorbent assay. The p-tau to total tau protein ratio at each time point for each drug was compared to the corresponding time point for cells treated with vehicle (DMSO) used to solubilize the respective compound.
Two-sided t-tests were used to determine significant changes in the p-tau protein to total tau protein ratio for each drug across the entire time course at each tested time point. Cells treated by drug were compared to cells treated to vehicle.

[2] = tested on: H4-tau cells; assay: Validation time course in H4-tau cells at IC50 (cell survival) dosage: p-tau and total tau protein by ELISA; format: cell-based, human; settings: IC50 dosage for cell survival, over 96 hours; for concentration of total tau protein: FIG. 2; for concentration of p-tau protein: FIG. 3
Protocol: The time course was repeated using 4 biological replicates over 96 hours and 10 time points (at hours 0, 6, 12, 24, 36, 48, 60, 72, 84, and 96). Total cell protein was collected at each time point and ELISAs were used to measure p-tau protein and total tau protein.

[3] = biological target: T1, ROCK1 (Homo sapiens, UniProt Q13464); assay: ROCK1 enzyme activity at 10 μM; format: biochemical; settings: 10 μM compound
T1 sequence (Q13464 whole entry): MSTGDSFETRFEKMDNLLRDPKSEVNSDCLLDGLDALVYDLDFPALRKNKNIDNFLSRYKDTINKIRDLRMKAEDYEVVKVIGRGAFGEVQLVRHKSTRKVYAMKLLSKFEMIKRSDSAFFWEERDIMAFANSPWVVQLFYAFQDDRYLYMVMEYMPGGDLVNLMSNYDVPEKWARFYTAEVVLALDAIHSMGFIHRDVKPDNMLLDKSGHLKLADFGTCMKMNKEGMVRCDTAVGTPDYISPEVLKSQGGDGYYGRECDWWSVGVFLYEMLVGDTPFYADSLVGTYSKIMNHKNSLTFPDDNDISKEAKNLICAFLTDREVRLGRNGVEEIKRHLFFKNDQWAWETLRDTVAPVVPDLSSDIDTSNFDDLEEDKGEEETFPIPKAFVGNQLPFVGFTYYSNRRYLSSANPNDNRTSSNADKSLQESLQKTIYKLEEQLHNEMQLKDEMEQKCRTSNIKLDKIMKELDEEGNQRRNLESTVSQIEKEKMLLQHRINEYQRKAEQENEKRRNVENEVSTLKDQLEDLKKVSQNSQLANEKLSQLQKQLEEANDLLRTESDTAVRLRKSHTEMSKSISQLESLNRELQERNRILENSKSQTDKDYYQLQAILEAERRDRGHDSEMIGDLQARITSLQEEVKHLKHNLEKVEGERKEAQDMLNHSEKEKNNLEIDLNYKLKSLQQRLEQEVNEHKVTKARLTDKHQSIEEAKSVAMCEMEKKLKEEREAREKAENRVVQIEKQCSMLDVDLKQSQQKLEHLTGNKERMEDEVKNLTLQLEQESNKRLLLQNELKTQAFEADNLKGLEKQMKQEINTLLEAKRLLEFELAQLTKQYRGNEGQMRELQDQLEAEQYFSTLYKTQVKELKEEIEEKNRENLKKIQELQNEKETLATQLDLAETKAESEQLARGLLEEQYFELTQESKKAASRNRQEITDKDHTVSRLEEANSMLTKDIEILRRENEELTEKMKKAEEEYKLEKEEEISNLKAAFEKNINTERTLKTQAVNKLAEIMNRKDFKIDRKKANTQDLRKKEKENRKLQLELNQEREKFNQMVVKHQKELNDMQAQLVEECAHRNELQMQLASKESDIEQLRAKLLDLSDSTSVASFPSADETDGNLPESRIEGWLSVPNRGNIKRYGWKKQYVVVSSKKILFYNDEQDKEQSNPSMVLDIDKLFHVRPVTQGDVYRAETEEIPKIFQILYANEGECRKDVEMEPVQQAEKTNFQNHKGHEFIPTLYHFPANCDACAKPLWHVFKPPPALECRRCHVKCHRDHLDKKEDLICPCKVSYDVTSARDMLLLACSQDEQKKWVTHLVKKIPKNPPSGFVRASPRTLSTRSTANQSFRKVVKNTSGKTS
Protocol: (§1) Enzyme activity of ROCK1 and ROCK2 were studied at 10 μM to compare the inhibition activity of ROCK inhibitors. Table 2 summarizes the extent of inhibition of the compounds of the inventions.

[4] = biological target: T2, ROCK2 (Homo sapiens, UniProt O75116); assay: ROCK2 enzyme activity at 10 μM; format: biochemical; settings: 10 μM compound
T2 sequence (O75116 whole entry): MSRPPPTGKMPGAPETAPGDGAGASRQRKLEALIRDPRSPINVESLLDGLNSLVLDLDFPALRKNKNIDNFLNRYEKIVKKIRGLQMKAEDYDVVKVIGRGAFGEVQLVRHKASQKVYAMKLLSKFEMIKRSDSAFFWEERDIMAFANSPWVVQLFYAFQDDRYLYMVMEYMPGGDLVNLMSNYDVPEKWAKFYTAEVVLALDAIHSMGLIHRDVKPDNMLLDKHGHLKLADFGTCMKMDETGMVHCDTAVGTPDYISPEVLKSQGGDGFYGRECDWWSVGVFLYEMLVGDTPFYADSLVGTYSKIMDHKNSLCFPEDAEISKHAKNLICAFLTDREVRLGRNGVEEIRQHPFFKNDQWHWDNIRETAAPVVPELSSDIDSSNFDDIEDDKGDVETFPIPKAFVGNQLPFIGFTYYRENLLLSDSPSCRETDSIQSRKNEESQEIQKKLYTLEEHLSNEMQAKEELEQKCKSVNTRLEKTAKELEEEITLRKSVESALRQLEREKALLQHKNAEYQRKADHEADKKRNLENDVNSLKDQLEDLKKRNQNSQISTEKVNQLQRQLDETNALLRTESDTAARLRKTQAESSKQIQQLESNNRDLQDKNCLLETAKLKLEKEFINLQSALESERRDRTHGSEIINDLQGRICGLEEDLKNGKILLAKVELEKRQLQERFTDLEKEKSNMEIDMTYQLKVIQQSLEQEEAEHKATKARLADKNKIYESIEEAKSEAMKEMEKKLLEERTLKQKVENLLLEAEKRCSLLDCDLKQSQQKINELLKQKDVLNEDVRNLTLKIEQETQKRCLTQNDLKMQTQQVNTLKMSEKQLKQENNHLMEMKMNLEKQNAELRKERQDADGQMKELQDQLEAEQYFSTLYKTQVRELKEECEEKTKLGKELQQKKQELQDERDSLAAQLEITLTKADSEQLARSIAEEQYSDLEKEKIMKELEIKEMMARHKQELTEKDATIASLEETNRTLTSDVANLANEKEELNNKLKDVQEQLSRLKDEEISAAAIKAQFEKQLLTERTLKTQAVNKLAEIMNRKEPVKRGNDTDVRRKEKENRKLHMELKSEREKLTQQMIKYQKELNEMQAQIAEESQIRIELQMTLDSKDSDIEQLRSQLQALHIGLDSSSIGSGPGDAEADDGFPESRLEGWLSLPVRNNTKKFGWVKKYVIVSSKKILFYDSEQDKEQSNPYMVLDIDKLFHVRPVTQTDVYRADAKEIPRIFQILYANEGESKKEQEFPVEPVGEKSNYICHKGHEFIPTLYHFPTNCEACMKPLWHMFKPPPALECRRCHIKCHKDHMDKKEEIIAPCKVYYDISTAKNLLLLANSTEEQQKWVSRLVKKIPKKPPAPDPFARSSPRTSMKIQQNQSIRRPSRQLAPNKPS
Protocol: as §1

[5] = biological target: T1, ROCK1; assay: IC50 value for ROCK1 activity; format: biochemical; settings: ATP at Km (10 μM)
[6] = biological target: T2, ROCK2; assay: IC50 value for ROCK2 activity; format: biochemical; settings: ATP at Km (10 μM)
[7] = tested on: Aβ42; settings: mouse model of AD; cited from earlier work
[8] = tested on: rats; settings: cited from earlier work
[9] = tested on: rats; settings: aged rats; cited from earlier work
[10] = Test 1, read-out: % enzyme activity at 10 μM ROCK1 Test 1
[11] = Test 2, read-out: % enzyme activity at 10 μM ROCK1 Test 2
[12] = Test 1, read-out: % enzyme activity at 10 μM ROCK2 Test 1
[13] = Test 2, read-out: % enzyme activity at 10 μM ROCK2 Test 2

In the case of `CC(Cc1ccc(F)cc1)NC(=O)c1ccc(-c2ccncc2)cc1` (stereo not shown) [Compound T350], the “p-tau protein to total tau protein ratio” value [1] was “significant decrease”.
In the case of `O=C(NCCc1cccc(Cl)c1)c1ccc(-c2ccncc2)cc1` [Compound T343], the “p-tau protein to total tau protein ratio” value [1] was “significant decrease”, the “p-tau protein to total tau protein ratio” value ([2]; 4 biological replicates, FIG. 4) was “significant decrease; also recorded: decreased ratio” and the “concentration of total tau protein” value [2] was “lesser concentrations”. The “concentration of p-tau protein” value [2] was “lesser concentrations”, the remaining activity at 10 µM [3, 10] was 1.22% and the remaining activity at 10 µM [3, 11] was 1.17%. It also gave a remaining activity at 10 µM [4, 12] of 0.08%, a remaining activity at 10 µM [4, 13] of 0.56% and an IC50 ([5]; Test 1, read-out: IC50 (μM) ROCK1 Test 1) of 0.0318 µM. The IC50 ([5]; Test 2, read-out: IC50 (μM) ROCK1 Test 2) was 0.0227 µM, the IC50 ([6]; Test 1, read-out: IC50 (μM) ROCK2 Test 1) was 0.0167 µM and the IC50 ([6]; Test 2, read-out: IC50 (μM) ROCK2 Test 2) was 0.0102 µM.
With `O=C(Nc1cccc(-c2ccncc2)c1)C1COc2ccccc2C1` (stereo not shown) [Compound T303] the “p-tau protein to total tau protein ratio” value [1] was “significant decrease”, the remaining activity at 10 µM [3, 10] was 3.26% and the remaining activity at 10 µM [3, 11] was 2.65%. For the same molecule, the remaining activity at 10 µM [4, 12] was 0.78% and the remaining activity at 10 µM [4, 13] was 0.55%.
In the case of `CC(N)C1CCC(C(=O)Nc2ccncc2)CC1` (stereo not shown) [Compound Y27632, 4-(1-aminoethyl)-N-pyridin-4-yl-cyclohexane-1-carboxamide], the “brain levels of Aβ42” value [7] is listed as “preferentially lowered”, the memory and learning ([8]; rats with ischemia) is listed as “increased” and the “hyperphosphorylation of the tau protein” value ([8]; rats, hyperphosphorylation due to ischemia) is listed as “decreased”. The memory and learning ([8]; sham rats, no hyperphosphorylation of the tau protein) was “decreased”.
In the case of `O=S(=O)(c1cccc2cnccc12)N1CCCNCC1` [Fasudil, 5-(1,4-diazepan-1-ylsulfonyl)isoquinoline, reference compound], the “concentration of total tau protein” value [2] is given as “lesser concentrations”, the “concentration of p-tau protein” value [2] is given as “lesser concentrations” and the learning and memory [9] is given as “increased”.
`O=C(Nc1ccc(-c2cn[nH]c2)cc1)C1COc2ccccc2C1` (stereo not shown) [Compound T299] showed a remaining activity at 10 µM [3, 10] of 0.97% and a remaining activity at 10 µM [3, 11] of 2.38%.
Work on `O=S(=O)(c1cccc2cnccc12)N1CCCN(Cc2ccc(F)cc2)CC1` [Compound T306] yielded a remaining activity at 10 µM [3, 10] of 6.75%, a remaining activity at 10 µM [3, 11] of 6.94% and a remaining activity at 10 µM [4, 12] of 3.85%. The remaining activity at 10 µM [4, 13] was 3.62%.
